Changes are numbered by the printed parent chain. Names and notes keep the numbering of the source. “Also recorded” adds a separate entry of the source. Where two headings read alike, the source gives them in different places.
What was measured:
human CCL5 = target: T1, human CCL5 (Homo sapiens, UniProt P13501); assay: Fluorescence anisotropy titration of 5(6)-Fam-labeled peptides by CCL5; format: binding; conditions: 100 nM 5(6)-Fam-labeled peptide, HEPES pH 7.4, 37 °C; for effect of CCL5 addition on fluorescence anisotropy / affinity in words: CCL5 up to 500 nM
T1 sequence (P13501 24-91): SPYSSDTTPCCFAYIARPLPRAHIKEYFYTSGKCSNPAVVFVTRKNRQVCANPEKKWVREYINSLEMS
Excerpt: To assess this hypothesis, two peptides taken from the Evasin-4 sequence were synthesized by Boc-based solid-phase peptide synthesis (Figs. S8 and S9). The first peptide, Ev4 Glu^14–Ala^23, comprises the Glu^14–Ala^23 residues of Evasin-4, whereas the second one, Ev4 Glu^14–Asn^31, includes the longer region Glu^14–Asn^31 (Fig. 4C). Cys^27 in the Ev4 Glu^14–Asn^31 was mutated to alanine to prevent oxidation and formation of intermolecular disulfide bonds. Affinity of obtained peptides to CCL5 was studied by fluorescence anisotropy using 100 nM of 5(6)-Fam–labeled peptides and human CCL5.
Fluorescence polarization assays were carried out using FluoroMax 4 fluorimeter (Horiba) equipped with FM4-2000 polarizers in 3-ml cuvettes. 100 nM solution of 5(6)-Fam–labeled peptides in HEPES buffer pH 7.4 were titrated by a 30 μM stock solution of CCL5 at 37 °C. Fluorescent signal was measured using 495 and 520 nm as excitation and emission wavelengths. The final titration curve is a result of three or four independent measurements.

[1] = tested on: CCL5-induced THP-1 cell migration; assay: THP-1 monocytic cell migration assay toward CCL5; format: cell-based, human; conditions: CCL5 0.5 µg/ml
Description: Human acute monocytic leukemia cell line (THP-1) monocytic cells were purchased from Leibniz-Institut DSMZ (ACC 16). The cells were cultured in RPMI 1640 GlutaMAX medium supplemented with 20 % fetal calf serum and 1 % penicillin/streptomycin (all Gibco ThermoFisher). The cells were cultured in a humidified atmosphere (5 % CO2, 95 % air, 37 °C) and routinely passed by splitting the cells (1:10) to fresh medium. The migration of monocytic cells toward chemoattractants was assessed in a 12-well chemotaxis chamber equipped with a 5-μm polycarbonate membrane (both Neuroprobe, Gaithersburg, MD, USA). Chemoattractants CCL5 (0.5 µg/ml) or CXCL4 (0.5 µg/ml) were preincubated with met–Evasin-4 (1 µg/ml) for 2 h at 37 °C subsequently added to the bottom well of the chemotaxis chamber. THP-1 monocytic cells (1 × 10^6/ml), suspended in RPMI 1640 GlutaMAX medium supplemented with 1 % fetal calf serum, were added in the upper wells and incubated for 90 min at 37 °C in a humidified atmosphere (5 % CO2, 95 % air). The nonmigrated cells were carefully removed, and the membrane was stained with Diff-Quick stain (Eberhard Lehmann GmbH, Berlin, Germany). Migrated cells were visualized by light microscopy, counted manually in five fields, and expressed as cells/mm^2.

E66S CCL5 = assay: NMR titration of 15N E66S CCL5 by Ev4 Glu14-Asn31; format: binding; conditions: 25 mM acetate
Description: In the case of E66S CCL5/Ev4 Glu^14–Asn^31 complex, 25 μM of ^15N E66S CCL5 in 25 mM acetate buffer, pH 4.5, was titrated by increasing concentrations of Ev4 Glu^14–Asn^31. For each concentration ^15N-^1H HSQC was recorded. Backbone resonance assignments were derived by following the shift of peak positions.

[2] = Solubility/precipitation observed in NMR and crystallization sample preparation
Description: For NMR sample preparation, lyophilized proteins were dissolved in 25 mM phosphate buffer (pH 6.8–7.1) or 25 mM sodium acetate-d^3 buffer (pH 4.5) containing 0.1 mM EDTA, 0.2 mM sodium azide, 5% (v/v) D2O for deuterium lock, at final concentration of 50 μM for m–t-Evasin-4 and 82, 20, and 1 μM for E66S CCL5. The samples were buffer exchanged four or five times by ultracentrifugation using prewashed Amicon Ultra-3000 3-kDa (Millipore, USA) ultracentrifugation filters. Final NMR samples were prepared in 3- or 5-mm NMR tubes, containing traces of DSS for chemical shift calibration. All NMR spectra were recorded using a Bruker Avance III HD 700 MHz spectrometer, equipped with a cryogenically cooled TCI probe at 37 °C. To make the complex, equimolar amounts of unlabeled met–Evasin-4 or E66S CCL5 were titrated to their [^15N,^13C]-enriched complement samples. For met–Evasin-4 and the two complexes, the solution pH of the NMR sample was carefully adjusted to pH 7.1 to ensure stable, nonprecipitating solutions.

CCL3 = conditions: cited from earlier work
Excerpt: Disruption of the chemokine signaling system is one of the crucial parts of ticks' strategy to evade immune responses. To neutralize chemokines, ticks secrete small cysteine-rich chemokine-binding proteins in their saliva with no homologues in mammals, termed Evasins ([6]). Evasins can be divided into two structurally unrelated C6 or C8 subfamilies embodying six and eight cysteines, respectively ([6]). […] In fact, the N terminus of C8-Evasins seems to play a crucial role in chemokine binding. For instance, replacement of the N terminus of Evasin-1 by that of P672, another C8-Evasin with different chemokine selectivity, produced a chim ...

CCL18 = conditions: cited from earlier work
Excerpt: (§1) Disruption of the chemokine signaling system is one of the crucial parts of ticks' strategy to evade immune responses. To neutralize chemokines, ticks secrete small cysteine-rich chemokine-binding proteins in their saliva with no homologues in mammals, termed Evasins ([6]). Evasins can be divided into two structurally unrelated C6 or C8 subfamilies embodying six and eight cysteines, respectively ([6]). […] Although several hundred of putative C6- and C8-Evasins have been identified in tic ...

CCL4 = conditions: cited from earlier work
Excerpt: as §1

[3] = NMR analysis of E66S CCL5 monomer/dimer equilibria; format: physicochemical; conditions: pH 4.5, 37 °C
Description: To study the structural determinants of E66S CCL5 involved in Evasin-4 binding, NMR spectra were recorded for the [^15N,^13C]E66S CCL5–Evasin-4 complex. Initial ^15N-^1H HSQC spectra of [^15N,^13C]E66S CCL5 were recorded at pH 4.5 and 37 °C at concentrations of 1 and 20 μM. […] This observation goes in line with the obtained crystal structure because the E66S CCL5 dimer interface is formed by interactions of the N terminus with the 30s loop and β3-strand.

[4] = physiological pH; cited from earlier work
Description: (§2) CCL5 can oligomerize, forming dimers and oligomers of a higher order ([16]), which would complicate analysis of Evasin-4 binding. […] To address this question, surface plasmon resonance (SPR) biosensor analysis was performed with biotinylated Eva ...

Evasin-4 = conditions: cited from earlier work
Description: as §2

## H-EEEDDYTAYA-NH2 [Ev4 Glu^14–Ala^23, peptide comprising the Glu14–Ala23 residues of Evasin-4]
Human CCL5
  effect of CCL5 addition on fluorescence anisotropy / affinity in words: no effect even at concentration of 500 nM
Human CCL5; fluorescence anisotropy
  affinity to CCL5: no affinity to CCL5

## H-EEEDDYTAYAPLTAYFTN-NH2 [Ev4 Glu^14–Asn^31, H2N-EEEDDYTAYAPLTAYFTN-CONH2]
Human CCL5
  effect of CCL5 addition on fluorescence anisotropy / affinity in words: dose-dependent increase of fluorescence anisotropy
Human CCL5; fluorescence anisotropy
  affinity to CCL5: nanomolar affinity to CCL5; also recorded: binds CCL5 with nanomolar affinity
Human CCL5; fluorescence anisotropy, titrated by 30 μM stock of CCL5, ex 495/em 520 nm, three or four independent measurements, read-out: apparent KD
  Kd: 69 ± 12 nM
[1]; CCL5-induced THP-1 migration, compared with full-length protein
  required inhibitory concentrations compared with full-length Evasin-4: the required concentrations were higher compared with the full-length protein
[1]; full inhibition only at this concentration, 1 × 10^6 cells/ml, 90 min, 37 °C
  concentration at which full inhibition of CCL5-induced THP-1 migration was reached: 10 µM
[1]; increasing concentrations of Ev4 Glu14-Asn31, 1 × 10^6 cells/ml, 90 min, 37 °C
  inhibition of CCL5-induced THP-1 migration: dose-dependent inhibition of CCL5-induced THP-1 cell migration; also recorded: effectively inhibits CCL5-induced monocyte migration; also recorded: blocks CCL5-induced monocyte migration
E66S CCL5; 25 μM [15N]E66S CCL5, increasing concentrations of peptide, pH 4.5
  effect of peptide titration on E66S CCL5 signals: binds the CCL5 monomer; also recorded: gradual shift of signals of monomeric E66S CCL5 and decrease of signal intensity for the dimeric form; also recorded: only CCL5 monomer signals are affected upon binding
E66S CCL5; 25 μM [15N]E66S CCL5 monomer form, before and after 500 μM Ev4 Glu14-Asn31, pH 4.5, 37 °C
  most perturbed residues of E66S CCL5 by peptide binding: N-loop (Phe^12–Arg^21 and His^23) and in the β3-strand (Gln^48 and Cys^50)
[2]; low pH values, negatively charged residues
  solubility of peptide: poorly soluble at low pH values
[2]; peptide/E66S CCL5 complex compared with E66S CCL5-Evasin-4 complex
  solubility of complex with E66S CCL5: more soluble compared with the E66S CCL5–Evasin-4 complex

B1: Evasin-1: 94–amino acid protein from the C8 subfamily, from Rhipicephalus sanguineus (protein, UniProt P0C8E7 21-114, looked up)
Evasin-1: EDDEDYGDLGGCPFLVAENKTGYPTIVACKQDCNGTTETAPNGTRCFSIGDEGLRRMTANLPYDCPLGQCSNGDCIPKETYEVCYRRNWRDKKN
CCL3
  affinity in words: high-affinity binder
CCL18
  affinity in words: high-affinity binder
CCL4
  affinity in words: high-affinity binder

B2: E66S CCL5: CCL5 mutant that mainly forms dimers at physiological pH (protein, UniProt P13501 24-91, looked up, variant E66S)
C-C motif chemokine 5: T1 sequence (P13501 24-91) with E66S
[3]; 1 μM E66S CCL5, 15N-1H HSQC
  oligomeric form: monomeric form
[3]; 20 μM E66S CCL5, 15N-1H HSQC, two sets of signals
  oligomeric form: monomeric and dimeric form
[4]
  oligomeric form: mainly forms dimers

B3: E66A CCL5: CCL5 mutant with deficiency in oligomerization (ref 25) (protein, UniProt P13501 24-91, looked up, variant E66A)
C-C motif chemokine 5: T1 sequence (P13501 24-91) with E66A
Evasin-4
  oligomerization and Evasin-4 inhibition potency: deficiency in oligomerization without disturbing Evasin-4 inhibition potency

B4: CCL5: chemokine CC-motif ligand 5, also known as RANTES (protein, UniProt P13501 24-91, looked up)
C-C motif chemokine 5: T1 sequence (P13501 24-91)
[1]; compared with control in the absence of chemoattractants, 90 min, 37 °C
  induction of THP-1 migration: induced significant migration of THP-1 cells
